# Target: T1, mouse Tas2r108 (Mus musculus, UniProt Q9JKT3)
# T1 construct: expressed in transfected cells; host or cells: HEK293T-Gα16gust44
# T1 sequence (Q9JKT3 1-297): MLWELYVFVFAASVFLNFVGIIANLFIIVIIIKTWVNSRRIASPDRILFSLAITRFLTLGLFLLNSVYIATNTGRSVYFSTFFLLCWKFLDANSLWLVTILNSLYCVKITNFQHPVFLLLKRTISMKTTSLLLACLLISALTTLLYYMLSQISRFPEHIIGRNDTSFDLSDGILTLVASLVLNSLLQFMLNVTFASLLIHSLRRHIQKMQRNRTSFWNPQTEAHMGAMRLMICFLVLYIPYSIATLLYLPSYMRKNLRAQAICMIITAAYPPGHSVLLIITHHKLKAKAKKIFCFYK
# Assay: Calcium imaging assay (FLIPR), HEK293T-Gα16gust44 cells transfected with mouse Tas2r108
# Type: cell-based
# Details: for Δ F/F: Tas2r108; for Activation threshold concentration Tas2r108: p < 0.01 vs empty vector
# Outline: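 HEK293T-Gα16gust44 cells transiently transfected with the bitter-taste receptor, loaded next day with Fluo-4-AM plus 2.5 mM probenecid, and challenged with bile acids on FLIPR Tetra. Signals mock-subtracted, expressed as ΔF/F vs buffer.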
compound,measurement,setting,value
"C[C@H](CCC(=O)NCCS(=O)(=O)O)[C@H]1CC[C@H]2[C@@H]3[C@H](O)C[C@@H]4C[C@H](O)CC[C@]4(C)[C@H]3C[C@H](O)[C@]12C [Taurocholic Acid, taurocholic acid]",Δ F/F,"conc. 0,01 mM",0.0164
same,Δ F/F,"conc. 0,1 mM",0.02829
same,Δ F/F,"conc. 0,03 mM",0.01249
same,Δ F/F,"conc. 0,3 mM",0.06351
same,Δ F/F,"conc. 0,001 mM",0.009911
same,Δ F/F,conc. 1 mM,0.1676
same,Δ F/F,"conc. 0,003 mM",0.0148
same,RLU,Time 0 s,0 RLU
same,RLU,Time 2 s,-20.2593 RLU
same,RLU,Time 4 s,-40.462 RLU
same,RLU,Time 6 s,-30.0161 RLU
same,RLU,Time 8 s,-12.374 RLU
same,RLU,Time 12 s,-13.3496 RLU
same,RLU,Time 14 s,-6.544 RLU
same,RLU,Time 16 s,-15.3343 RLU
same,RLU,Time 18 s,-11.3649 RLU
same,RLU,Time 18.781 s,0.4416 RLU
same,RLU,Time 20.781 s,-36.0442 RLU
same,RLU,Time 22.781 s,-43.651 RLU
same,RLU,Time 24.781 s,-41.1365 RLU
same,RLU,Time 26.781 s,-18.6 RLU
same,RLU,Time 28.781 s,11.2728 RLU
same,RLU,Time 30.781 s,33.5132 RLU
same,RLU,Time 32.781 s,71 RLU
same,RLU,Time 34.781 s,95.3158 RLU
same,RLU,Time 36.781 s,97.2719 RLU
same,RLU,Time 38.781 s,144.173 RLU
same,RLU,Time 40.781 s,134.881 RLU
same,RLU,Time 42.781 s,146.815 RLU
same,RLU,Time 44.781 s,188.478 RLU
same,RLU,Time 46.781 s,187.465 RLU
same,RLU,Time 48.781 s,214.327 RLU
same,RLU,Time 50.781 s,211.162 RLU
same,RLU,Time 52.781 s,236.861 RLU
same,RLU,Time 54.781 s,237.067 RLU
same,RLU,Time 56.781 s,230.295 RLU
same,RLU,Time 58.781 s,253.142 RLU
same,RLU,Time 60.781 s,220.824 RLU
same,RLU,Time 62.781 s,245.001 RLU
same,RLU,Time 64.781 s,248.53 RLU
same,RLU,Time 66.781 s,284.462 RLU
same,RLU,Time 68.781 s,254.576 RLU
same,RLU,Time 70.781 s,279.831 RLU
same,RLU,Time 72.781 s,269.677 RLU
same,RLU,Time 74.781 s,263.013 RLU
same,RLU,Time 76.781 s,268.161 RLU
same,RLU,Time 78.781 s,271.517 RLU
same,RLU,Time 80.781 s,261.286 RLU
same,RLU,Time 82.781 s,284.591 RLU
same,RLU,Time 84.781 s,263.187 RLU
same,RLU,Time 86.781 s,264.054 RLU
same,RLU,Time 88.781 s,257.931 RLU
same,RLU,Time 90.781 s,266.719 RLU
same,RLU,Time 92.781 s,280.373 RLU
same,RLU,Time 94.781 s,260.776 RLU
same,RLU,Time 96.781 s,264.943 RLU
same,RLU,Time 98.781 s,262.119 RLU
same,RLU,Time 100.781 s,242.991 RLU
same,RLU,Time 102.781 s,248.884 RLU
same,RLU,Time 104.781 s,234.786 RLU
same,RLU,Time 106.781 s,246.521 RLU
same,RLU,Time 108.781 s,245.379 RLU
same,RLU,Time 110.781 s,221.773 RLU
same,RLU,Time 112.781 s,255.593 RLU
same,RLU,Time 114.781 s,236.786 RLU
same,RLU,Time 116.781 s,246.038 RLU
same,RLU,Time 118.781 s,236.543 RLU
same,RLU,Time 120.781 s,242.472 RLU
same,RLU,Time 122.781 s,225.877 RLU
same,RLU,Time 124.781 s,231.718 RLU
same,RLU,Time 126.781 s,218.383 RLU
same,RLU,Time 128.781 s,219.672 RLU
same,RLU,Time 130.781 s,215.513 RLU
same,RLU,Time 132.781 s,219.132 RLU
same,RLU,Time 134.781 s,219.383 RLU
same,RLU,Time 136.781 s,199.62 RLU
same,RLU,Time 137.562 s,222.887 RLU
same,RLU,Time 143.562 s,216.156 RLU
same,RLU,Time 149.562 s,209.286 RLU
same,RLU,Time 155.562 s,217.366 RLU
same,RLU,Time 161.562 s,220.781 RLU
same,RLU,Time 167.562 s,219.02 RLU
same,RLU,Time 173.562 s,233.427 RLU
same,RLU,Time 179.562 s,239.06 RLU
same,RLU,Time 185.562 s,225.962 RLU
same,RLU,Time 191.562 s,229.727 RLU
same,RLU,Time 197.562 s,239.899 RLU
same,RLU,Time 203.562 s,214.938 RLU
same,RLU,Time 209.562 s,251.411 RLU
same,RLU,Time 215.562 s,226.847 RLU
same,RLU,Time 221.562 s,216.644 RLU
same,RLU,Time 227.562 s,259.359 RLU
same,RLU,Time 233.562 s,219.243 RLU
same,RLU,Time 239.562 s,236.142 RLU
same,RLU,Time 245.562 s,237.626 RLU
same,RLU,Time 293.562 s,221.03 RLU
same,RLU,Time 299.562 s,234.317 RLU
same,RLU,Time 305.562 s,241.837 RLU
same,RLU,Time 311.562 s,254.495 RLU
same,RLU,Time 317.562 s,265.787 RLU
same,RLU,Time 323.562 s,251.038 RLU
same,RLU,Time 329.562 s,233.221 RLU
same,RLU,Time 335.562 s,247.117 RLU
same,RLU,Time 341.562 s,273.956 RLU
same,RLU,Time 347.562 s,268.956 RLU
same,RLU,Time 353.562 s,264.083 RLU
same,RLU,Time 359.562 s,275.281 RLU
same,Activation threshold concentration Tas2r108,,100 µM
"C[C@H](CCC(=O)NCCS(=O)(=O)O)[C@H]1CC[C@H]2[C@@H]3CC[C@@H]4C[C@H](O)CC[C@]4(C)[C@H]3CC[C@]12C [Taurolithocholic Acid, taurolithocholic acid]",RLU,Time 0 s,0 RLU
same,RLU,Time 2 s,0.6757 RLU
same,RLU,Time 4 s,-5.736 RLU
same,RLU,Time 6 s,6.046 RLU
same,RLU,Time 8 s,39.2838 RLU
same,RLU,Time 12 s,8.803 RLU
same,RLU,Time 14 s,5.215 RLU
same,RLU,Time 16 s,-9.6707 RLU
same,RLU,Time 18 s,-10.699 RLU
same,RLU,Time 18.781 s,51.1832 RLU
same,RLU,Time 20.781 s,31.0896 RLU
same,RLU,Time 22.781 s,17.366 RLU
same,RLU,Time 24.781 s,13.0906 RLU
same,RLU,Time 26.781 s,51.6272 RLU
same,RLU,Time 28.781 s,63.3328 RLU
same,RLU,Time 30.781 s,109.429 RLU
same,RLU,Time 32.781 s,151.07 RLU
same,RLU,Time 34.781 s,184.905 RLU
same,RLU,Time 36.781 s,210.816 RLU
same,RLU,Time 38.781 s,242.967 RLU
same,RLU,Time 40.781 s,265.916 RLU
same,RLU,Time 42.781 s,261.677 RLU
same,RLU,Time 44.781 s,303.058 RLU
same,RLU,Time 46.781 s,324.099 RLU
same,RLU,Time 48.781 s,311.969 RLU
same,RLU,Time 50.781 s,342.074 RLU
same,RLU,Time 52.781 s,343.185 RLU
same,RLU,Time 54.781 s,378.711 RLU
same,RLU,Time 56.781 s,389.7 RLU
same,RLU,Time 58.781 s,401.227 RLU
same,RLU,Time 60.781 s,410.325 RLU
same,RLU,Time 62.781 s,416.305 RLU
same,RLU,Time 64.781 s,417.574 RLU
same,RLU,Time 66.781 s,434.462 RLU
same,RLU,Time 68.781 s,456.387 RLU
same,RLU,Time 70.781 s,443.293 RLU
same,RLU,Time 72.781 s,455.898 RLU
same,RLU,Time 74.781 s,461.633 RLU
same,RLU,Time 76.781 s,455.071 RLU
same,RLU,Time 78.781 s,466.188 RLU
same,RLU,Time 80.781 s,477.183 RLU
same,RLU,Time 82.781 s,506.736 RLU
same,RLU,Time 84.781 s,503.228 RLU
same,RLU,Time 86.781 s,489.189 RLU
same,RLU,Time 88.781 s,473.872 RLU
same,RLU,Time 90.781 s,497.168 RLU
same,RLU,Time 92.781 s,472.229 RLU
same,RLU,Time 94.781 s,481.838 RLU
same,RLU,Time 96.781 s,467.082 RLU
same,RLU,Time 98.781 s,510.678 RLU
same,RLU,Time 100.781 s,498.898 RLU
same,RLU,Time 102.781 s,493.381 RLU
same,RLU,Time 104.781 s,508.478 RLU
same,RLU,Time 106.781 s,488.526 RLU
same,RLU,Time 108.781 s,487.641 RLU
same,RLU,Time 110.781 s,528.304 RLU
same,RLU,Time 112.781 s,500.584 RLU
same,RLU,Time 114.781 s,484.964 RLU
same,RLU,Time 116.781 s,486.198 RLU
same,RLU,Time 118.781 s,494.318 RLU
same,RLU,Time 120.781 s,504.713 RLU
same,RLU,Time 122.781 s,501.616 RLU
same,RLU,Time 124.781 s,482.612 RLU
same,RLU,Time 126.781 s,503.591 RLU
same,RLU,Time 128.781 s,486.957 RLU
same,RLU,Time 130.781 s,500.459 RLU
same,RLU,Time 132.781 s,472.597 RLU
same,RLU,Time 134.781 s,498.526 RLU
same,RLU,Time 136.781 s,501.497 RLU
same,RLU,Time 137.547 s,471.412 RLU
same,RLU,Time 143.547 s,482.177 RLU
same,RLU,Time 149.547 s,466.386 RLU
same,RLU,Time 155.547 s,451.788 RLU
same,RLU,Time 161.547 s,449.152 RLU
same,RLU,Time 167.547 s,425.382 RLU
same,RLU,Time 173.547 s,442.283 RLU
same,RLU,Time 179.547 s,425.607 RLU
same,RLU,Time 185.547 s,410.079 RLU
same,RLU,Time 191.547 s,397.165 RLU
same,RLU,Time 197.547 s,392.705 RLU
same,RLU,Time 203.547 s,382.875 RLU
same,RLU,Time 209.547 s,387.748 RLU
same,RLU,Time 215.547 s,381.118 RLU
same,RLU,Time 221.547 s,374.673 RLU
same,RLU,Time 227.547 s,340.738 RLU
same,RLU,Time 233.547 s,357.908 RLU
same,RLU,Time 239.547 s,329.058 RLU
same,RLU,Time 245.547 s,312.353 RLU
same,RLU,Time 293.547 s,280.532 RLU
same,RLU,Time 299.547 s,302.8 RLU
same,Activation threshold concentration Tas2r108,,1 µM
same,RLU,time 305.547 s,271.906 RLU
same,RLU,time 311.547 s,293.129 RLU
same,RLU,time 317.547 s,296.196 RLU
same,RLU,time 323.547 s,325.759 RLU
same,RLU,time 329.547 s,278.402 RLU
same,RLU,time 335.547 s,309.885 RLU
same,RLU,time 341.547 s,315.03 RLU
same,RLU,time 347.547 s,300.184 RLU
same,RLU,time 353.547 s,294.817 RLU
same,RLU,time 359.547 s,274.663 RLU

# From article PMC10247784, “Physiological activation of human and mouse bitter taste receptors by bile acids” (Communications Biology, 2023)
